# Reference: patent publication EP3485874A1, “METHOD OF PREPARING A NATURAL DEEP EUTECTIC SOLVENT (NADES)-ACTIVE INGREDIENT SYSTEM; A NADES-, AND PREFERABLY A POLYMERIC PRECIPITATION INHIBITOR CONTAINING NADES-, BASED DRUG FORMULATION TECHNOLOGY AND DEVELOPMENT METHOD” (SeraNovo B.V., priority 2017, dated 2019)
# Where two headings read alike, the source gives them in different places.
# Experiments:
# Format in all cases: physicochemical
# [1] = Stability of the active ingredient (pH, storage)
# Description: Suitable secondary criteria are for instance the absolute oral bioavailability, typically denoted as a percentage of the maximum bioavailability of 100% which is defined as the bioavailability of the intravenous formulation as measured in a living being such as those used in animal trials or in human trials. Bioavailability is measured as the AUC (Area Under Curve) of the plasma concentration of a drug collected over a certain period of time, which depends on the half-life of the drug. Another suitable criterion is the stability data (such as temperature sensibility and pH range of stability expressed in time units). This is expressed as a duration in days/months/years where the compound has not undergone unacceptable levels of degradation (<10%) in specific conditions e.g. low pH.
# [2] = pKa of the active ingredient
# Excerpt: Further, the analysis also at least involves determination of acidity/basicity of the compound by determining the pKa value by standard methods. In the case of previously analyzed compounds such information typically available in published literature.
# [3] = Solubility of the active ingredient in comparable solvents (polar to nonpolar)
# Description: These values are expressed in mg/ml and determined at a temperature of 25°C at 1 atm. In a preferred embodiment, also the solubility is determined in water-based systems having different pH's, or having different temperatures; and in water-based systems wherein co-solvents are present; and in stomach or intestinal media. Solubility information in a broad range of solvents (including oils, dichloromethane, methanol), is useful because the knowledge of in which type of solvents the active ingredient dissolves well, helps in designing a NADES with similar properties.
# [4] = Solubility of the active ingredient in NADES; details: thermodynamic from solid
# Description: Subsequently, selected constituents are weighed out in the appropriate molar ratios and corresponding masses and are added to a suitable receptacle, such as a small bottle or other small vessel. In the receptacle generally a stirring element is added, such as a stirring flea. If two or more solid constituents are present, these are generally heated, for instance to about 70°C. When at least one liquid constituent is present, it is generally not needed to heat the system to temperatures higher than about 50°C. The constituents are stirred. When two (or more) solid constituents are mixed, this often leads to high or very high viscosities, in which case addition of some water or other liquid excipients such as propylene glycol is recommended. The stirring is continued until a clear liquid is formed.
# After a clear liquid is obtained, it is preferred to let it cool and sit for 24 hours or so, as a check for stability. If a NADES is not stable at RT (room temperature; in other words, if the eutectic point is higher than RT at the selected molar ratio), one can try adding additional constituents or trying a different molar ratio.
# Once cooled, the pH of the system is measured. An acidic NADES will in general be good at solubilizing a basic active ingredient due to protonation and vice versa. The stability can also be influenced by the pH, where usually a range of pH values is given that results in the best stability.
# Usually it is apparent within an hour whether or not a solvent is going to achieve any worthwhile solubility value. If the solute sticks to the side of the receptacle and/or floats on top, investigation into this solvent can be terminated. If the solute makes for a cloudy solution, further dilution may yield success.
# [5] = Particle size of precipitate after about 100 fold dilution of the NADES:PPI formulation with intestinal medium (FaSSIF), optical microscopy
# Description: All PPI's that are soluble at approximately a PPI to active ingredient ratio of 1 to 5 are selected for the next stage of testing. A small sample of for example 100 µl is taken from the NADES:PPI mixture and the appropriate mass of active ingredient is solubilized in the system as above. Each NADES: PPI: active ingredient sample is diluted approximately 100 fold with intestinal medium solutions e.g. Fast State Simulated Intestinal Fluid (FaSSIF). The system with the smallest particle size over a 2 hour period is determined to be the best performing formulation. The particle size is determined using visual inspection and optical microscopy.
# The precipitant molecules should in this light have a size less than approximately 10/µm, preferably less than 5µm and ideally less than about 1µm. These sizes are measured at 10 minute intervals over a 2 hours period to analyse the crystal growth. The crystal sizes are monitored using an optical microscope in initial samples; yet are more accurately measured after 2 hours using a Malvern Mastersizer 3000 or similar particle sizing equipment.
# Below are microscope images of formulations of flufenamic acid diluted with intestinal medium. The dilution is approximately similar to 1ml of formulation being released into the intestine. The goal is to have sufficiently small particle sizes for a sufficiently long period of time to promote drug absorption. Figures 1, 2 and 3 show progressions in particle size of flufenamic acid in formulations designed using the present invention.
# The following example is of a poorly water-soluble molecule, Paclitaxel, and the process of designing a system using the aforementioned invention. […] The second objective was to select one or more PPI's capable of controlling the size of precipitant upon an approximately 100 fold dilution with intestinal medium. The target dose of the formulation was 30mg/ml. The variation in particle size between formulations was analysed with visual inspection. The best performing formulations were compared with a size calibrated optical microscope and camera.
# [6] = NADES, organic solvent or mixture, Choline Chloride: Propylene Glycol (1:3), pH 6.71
smiles,measurement,setting,value
O=C(O)c1ccccc1Nc1cccc(C(F)(F)F)c1 [Flufenamic acid],Stability,"[1]; both acidic and basic aqueous solutions, period of 3 months at RT",stable
same,pKa,[2]; read-out: pKa,3.65
same,solubility in cyclohexane,[3]; cyclohexane,very low
same,solubility,"[3]; dimethyl sulfoxide, 25 °C, organic solvent or mixture, read-out: solubility in dimethyl sulfoxide",> 50 mg/mL
same,solubility,"[3]; ethanol, 25 °C, organic solvent or mixture, read-out: solubility in ethanol",> 50 mg/mL
same,solubility in hexane,[3]; hexane,very low
same,solubility in mineral oil (paraffin oil),[3]; mineral oil (paraffin oil),very low
same,Water solubility,"[3]; water, 25°C and 1atm",very low
same,solubility,"[3]; water, 25°C and 1atm, read-out: Water solubility",0.009 mg/mL
same,solubility,[4]; [6],28 mg/mL
same,solubility,"[4]; aqueous with cosolvent or surfactant or cyclodextrin, Choline chloride: Lactic acid: water (2:1:2), pH 2.19, polar NADES",< 1 mg/mL
same,solubility,"[4]; organic solvent or mixture, Acetamide: Propylene Glycol (1:2), pH 6.47, basic NADES",93.1 mg/mL
same,solubility,"[4]; organic solvent or mixture, Acetamide: Propylene Glycol (1:3), pH 6.89, basic NADES",50 mg/mL
same,solubility,"[4]; organic solvent or mixture, Choline Chloride: Ethylene Glycol (1:3), pH 6.08, neutral NADES",28 mg/mL
same,solubility,"[4]; organic solvent or mixture, Choline chloride: glucose: butylene glycol (2:1:1), polar NADES",< 1 mg/mL
same,solubility,"[4]; organic solvent or mixture, Sorbitol: Urea (1:1), pH 8.3, polar NADES",< 1 mg/mL
same,"Particle size result (microscope photograph, Fig. 2)","[5]; 28 mg/ml in choline chloride: propylene glycol (1:3) with 14 mg/ml Polyethylene Glycol-4000 solubilized in FaSSIF, 40x magnification",poor result
same,"Particle size result (microscope photograph, Fig. 3)","[5]; 28 mg/ml in choline chloride: propylene glycol (1:3) with 56 mg/ml Polyethylene Glycol-4000 solubilized in FaSSIF, 40x magnification",good result
CC(=O)O[C@H]1C(=O)[C@@]2(C)[C@H]([C@H](OC(=O)c3ccccc3)[C@]3(O)C[C@H](OC(=O)[C@H](O)[C@@H](NC(=O)c4ccccc4)c4ccccc4)C(C)=C1C3(C)C)[C@]1(OC(C)=O)CO[C@@H]1C[C@@H]2O [Paclitaxel],pH range in which most stable,[1],3-6 pH
same,Stability at basic pH,[1]; basic pH (8),degrades quickly
same,pKa,[2],11.9
same,pKa,[2]; read-out: pKa,11.9
same,solubility,"[3]; caster oil, 25 °C, oil or lipid, read-out: approximate solubility in caster oil",15 to 20 mg/mL
same,solubility in ethanol,[3]; ethanol,1.5 mg/mL
same,solubility,"[3]; olive oil, 25 °C, oil or lipid, read-out: approximate solubility in olive oil",15 to 20 mg/mL
same,solubility,[4]; [6],30 mg/mL
same,solubility,"[4]; aqueous with cosolvent or surfactant or cyclodextrin, Malic acid: Beta alanine: Water (1:1:2), pH 3.43, acidic NADES",< 1 mg/mL
same,solubility,"[4]; aqueous with cosolvent or surfactant or cyclodextrin, Sucrose: Glucose: Fructose: Water (1:1:1:8), pH 3.36, polar NADES",< 1 mg/mL
same,solubility,"[4]; pH 9.8, aqueous with cosolvent or surfactant or cyclodextrin, Choline Chloride: Urea: Water (1:1:2), pH 9.80, polar NADES",< 1 mg/mL
same,"Particle size result (microscope photograph, Fig. 4)","[5]; 30 mg/ml in choline chloride: propylene glycol (1:3) with 30 mg/ml hypromellose acetate succinate solubilized in FaSSIF, 40x magnification",good result
same,"Particle size, majority of observable particles (Fig. 4)","[5]; formulation diluted with intestinal medium, particles less than 1 µm not detected by optical microscopy",less than 10 µm
